Measured values from US9745357B2, “Peptides used for treating cancers and, in particular, chronic lymphoid leukaemia” (Centre National de la Recherche Scientifique, priority 2009, dated 2017).

Legend:
[1] = test system: B lymphocytes from patients suffering from chronic lymphoid leukemia (CLL); settings: for cell effect CLL 40 (survival): 4 hours of culture, cells not labeled with annexin or propidium iodide; for effect of the peptide on cell mortality, in words (relative to A1 WT IRS): 40 μM, 4 hours, FIG. 9
Protocol: Peripheral blood B lymphocytes taken from patients suffering from CLL and then purified on a Ficoll cushion and placed in culture are incubated in the presence of […] of the peptides described for FIG. 2. The percentage cell survival after 4 hours (gray column) or 24 hours (white column) of culture corresponds to the percentage of cells labeled neither with annexin nor with propidium iodide, evaluated by flow cytometry.
The CLL B lymphocytes were obtained from peripheral blood of 18 different patients suffering from chronic lymphoid leukemia. […] The samples were taken in the Brest hospital center, in the hematology department. The blood samples were taken after informing the patients and obtaining their informed consent.
The lymphocytes, mononuclear cells, were isolated from the heparinized peripheral blood samples by Ficoll-Hypaque (LSM 1077 lymphocyte, euro-bio) centrifugation. The red blood cells were lyzed by incubation for 10 min in VersaLyse Lysing Solution (Beckman Coulter). The mononuclear cells are obtained after 2 washes in culture medium (RPMI1640, Gibco BRL).
(§1) The cells were cultured in a culture medium composed either of RPMI 1640 (B lymphocytes) or of DMEM (COS7, HCT116, HGT1, 293, HeLa) containing 10% of FCS (fetal calf serum, 1% of penicillin-streptomycin and 1% of glutamine, Gibco BRL). The cells are distributed in a 24-well plate and cultured at 37° C. in a humid atmosphere under 5% CO2.
(§2) 400 μl of cell suspension (1×10^6 cells/ml) per well were treated for 4 h or 24 h with various concentrations of peptides. The test for activity of the peptides in the presence of emetine (FIG. 6) was carried out by preincubating the cells with 100 μM of emetine for one hour before the addition of peptide.
(§3) After the cells have been washed with PBS, they were analyzed using the Annexin V-FITC IP system according to the supplier's recommendations (Beckman Coulter).
The cells taken from patients suffering from chronic lymphoid leukemia were purified on a Ficoll cushion. […] The cells were placed in culture in RPMI medium in the presence of 10% FCS (fetal calf serum). The peptides were added directly to the culture medium. These peptides comprise the IRS sequence (the amino acid sequence of which is RYIRS) which is known to allow the penetration of peptides into B lymphocytes in culture (Dong et al., 2005). […] The cells which survive the treatment are those which are labeled neither with annexin nor with propidium iodide.

[2] = test system: Jok cells (cell line derived from B lymphocytes); assay: Cell survival of Jok cells, annexin/propidium iodide flow cytometry; type: cell-based, human; settings: for cell effect Jok 20 (survival): 20 μM peptide; for cell effect Jok 20 (survival) / cell effect Jok 40 (survival): 4 hours of culture, cells not labeled with annexin or propidium iodide; for effect of the peptide on cell mortality, in words (relative to A1 WT IRS): 4 hours, FIG. 9; for cell effect Jok 40 (survival): 40 μM peptide
Protocol: The cells are treated as indicated for FIG. 7, with the CLL cells, control T lymphocytes and Jok lymphocytes, which are incubated with the A1 WT IRS peptide and derivatives thereof described in table 1. The Jok cells were incubated either with 20 μM (JOK 20) or with 40 μM (JOK 40) of each of the peptides. In the interests of simplifying the legend, the A1 WT IRS peptide is referred to as “WT”. Likewise, the derivatives thereof are referred to by the name of the mutations (A1 K3I IRS is referred to as “K3I”, for example).
as §1, §2, §3
The peptides were tested on B lymphocytes from patients suffering from chronic lymphoid leukemia, control T lymphocytes, or Jok cells (cell line derived from B lymphocytes). The experiment was repeated three times for each type of cell tested.

[3] = test system: control T lymphocytes (patients suffering from hemochromatosis); assay: Cell survival of control T lymphocytes, annexin/propidium iodide flow cytometry; type: cell-based, human; settings: 40 μM peptide, 4 hours of culture, cells not labeled with annexin or propidium iodide
Protocol: FIG. 7: Activity of the A1WT peptide on cells of lymphocytic, lymphoid, gastric, colonic or renal origin The cells are prepared and placed in culture (see Materials and Methods) and then incubated for 4 H with the A1WT or A1 YALA peptide. The percentage cell survival corresponds to the percentage of cells labeled neither with annexin nor with propidium iodide, evaluated by flow cytometry. The names of the pathological conditions from which the patients from whom the samples are taken are suffering are indicated under the figure. The control T (L.T.) and B (L.B.) lymphocytes are taken from patients suffering from a disease not related to a lymphocytic pathological condition (hemochromatosis).
The control B lymphocytes and T lymphocytes originate from peripheral blood samples from patients suffering from hemochromatosis, provided by the CTS transfusion center in Brest. The B and T lymphocytes were isolated using the Rosett-Sep kit (Stemcell Technologies) according to the supplier's recommendations.
as §1, §2, §3

[4] = test system: control T lymphocytes (patients suffering from hemochromatosis); assay: as above; type: cell-based, human; settings: 40 μM, 4 hours; FIG. 9
[5] = concentration not given (20 or 40 μM)

| Molecule | cell survival with emetine alone ([1]; 100 μM emetine, after 4 H of incubation (from 97%), FIG. 6) [%] | cell effect CLL 40 (survival) ([1]; 40 μM peptide) | effect of the peptide on cell mortality, in words (relative to A1 WT IRS) [1] | cell effect Jok 20 (survival) [2] | effect of the peptide on cell mortality, in words (relative to A1 WT IRS) ([2]; 20 μM) | cell effect Jok 40 (survival) [2] | effect of the peptide on cell mortality, in words (relative to A1 WT IRS) ([2]; 40 μM) | cell effect LT 40 (survival) [3] | effect of the peptide on cell mortality, in words (relative to A1 WT IRS) [4] | effect on percentage cell survival ([1]; 40 μM peptide, 4 H and 24 H, FIG. 3) | action of the peptide on cell survival, in words, cell type not given ([1]; Example 6 (CLL cells, control T lymphocytes, Jok cells)) | effect of the peptide on cell mortality, in words (relative to A1 WT IRS) [2, 5] |
| --- | --- | --- | --- | --- | --- | --- | --- | --- | --- | --- | --- | --- |
| CC[C@H]1CN2CCc3cc(OC)c(OC)cc3[C@@H]2C[C@@H]1C[C@H]1NCCc2cc(OC)c(OC)cc21 [emetine, reference compound] | 82 |  |  |  |  |  |  |  |  |  |  |  |
| GGKYGRDFLLRFRYIRS [A1 R1, 2G IRS] |  | − (−: survival >50%) | abolishes the effect | − (−: survival >50%) | abolishes the effect | +/− (+/−: survival between 25 and 50%) | only partially decreased | − (−: survival >50%) | abolishes the effect |  |  |  |
| KKKYGRDFLLRFRYIRS [A1 R1, 2K IRS] |  | + (+: survival <25%) | decreases the effect | +/− (+/−: survival between 25 and 50%) | decreases the effect | + (+: survival <25%) | the same effect as the A1 WT IRS peptide | +/− (+/−: survival between 25 and 50%) | decreases the effect |  |  |  |
| KYGRDFLLRFRYIRS [A1 del2 IRS, deletion of the first two amino acids] |  | − (−: survival >50%) | loss of effect | +/− (+/−: survival between 25 and 50%) | loss of effect | + (+: survival <25%) | considerable mortality | − (−: survival >50%) | loss of effect |  |  |  |
| RIIYDRHFLLNMRYIRS [BPSg WT IRS, reference compound] |  |  |  |  |  |  |  |  |  | the percentage survival did not decrease |  |  |
| RIKYDRKFLLDRRYIRS [BP2 I3K IRS, reference compound] |  | − (−: survival >50%) |  | − (−: survival >50%) |  | − (−: survival >50%) |  | − (−: survival >50%) |  |  | does not confer a better efficacy |  |
| RRIYGRDFLLRFRYIRS [A1 K3I IRS] |  | − (−: survival >50%) | loss of effect | +/− (+/−: survival between 25 and 50%) | partially | + (+: survival <25%) |  |  |  |  |  |  |
| RRKYARDFLLRFRYIRS [A1 G5A-IRS] |  | + (+: survival <25%) | slightly increases the effect | + (+: survival <25%) |  | + (+: survival <25%) |  | + (+: survival <25%) | slightly increases the effect |  |  | slightly increases the effect |
| RRKYGHDFLLRFRYIRS [A1 R6H IRS] |  | +/− (+/−: survival between 25 and 50%) | abolishes the effect | + (+: survival <25%) |  | + (+: survival <25%) |  | +/− (+/−: survival between 25 and 50%) | abolishes the effect |  |  | the effect is potentiated |
| RRKYGKDFLLRFRYIRS [A1 R6K IRS] |  | + (+: survival <25%) | partially decreases the action | +/− (+/−: survival between 25 and 50%) |  | + (+: survival <25%) |  | +/− (+/−: survival between 25 and 50%) | partially decreases the action |  |  | partially decreases the action |
| RRKYGRAFLLFRFYIRS [A1 D7A IRS] |  | + (+: survival <25%) | does not modify the action | + (+: survival <25%) |  | + (+: survival <25%) |  | + (+: survival <25%) | does not modify the action |  |  |  |
| RRKYGRDFLLRKRYIRS [A1 F12K IRS] |  | − (−: survival >50%) | completely abolishes the action | − (−: survival >50%) |  | − (−: survival >50%) |  | − (−: survival >50%) | completely abolishes the action |  |  | completely abolishes the action |
| RRKYGRDFLLRWRYIRS [A1 F12W IRS] |  | + (+: survival <25%) | does not modify the action | + (+: survival <25%) |  | +/− (+/−: survival between 25 and 50%) |  | + (+: survival <25%) | does not modify the action |  |  | does not modify the action |
| RRKYGREFLLRFRYIRS [A1 D7E IRS] |  | + (+: survival <25%) | does not modify the action | + (+: survival <25%) |  | + (+: survival <25%) |  | + (+: survival <25%) | does not modify the action |  |  | its effect is potentiated |
| RRKYSRDFLLRFRYIRS [A1 G5S IRS] |  | + (+: survival <25%) | slightly increases the effect | + (+: survival <25%) |  | + (+: survival <25%) |  | + (+: survival <25%) | slightly increases the effect |  |  | slightly increases the effect |
| RRRYGRDFLLRFRYIRS [A1 K3R IRS] |  | + (+: survival <25%) | does not modify the effect | + (+: survival <25%) |  | + (+: survival <25%) |  | + (+: survival <25%) | does not modify the effect |  |  | does not modify the effect |
